Measurements reported in patent publication US9382208B1, “Negative allosteric modulators of metabotropic glutamate receptor 2” (Vanderbilt University, priority 2015, dated 2016).

Biological target: T1, rat mGlu2 (Rattus norvegicus, UniProt P31421)
T1 construct: expressed in transfected cells
Assay: mGlu2 Ca2+ flux assay
Format: cell-based
Conditions: for IC50: Gα15 HEK293 cells stably expressing rat mGlu2, glutamate EC80 addition, read-out: rat mGlu2 IC50; for remaining activity at 30 µM: amplitude of response in the presence of 30 μM test compound as percentage of maximal response to glutamate, read-out: rat mGlu2 Glu max (%)
Method: Gα15 HEK293 cells stably expressing rat mGlu2 were plated in black-walled, clear-bottomed, poly-D-lysine coated 384-well plates in 20 μL of assay medium (DMEM containing 10% dialyzed FBS, 20 mM HEPES, and 1 mM sodium pyruvate) at a density of 12K cells/well. The cells were grown overnight at 37° C. in the presence of 5% CO2. The next day, medium was removed and the cells incubated with 20 μL of 2.3 μM Fluo-4, AM prepared as a 2.3 mM stock in DMSO and mixed in a 1:1 ratio with 10% (w/v) pluronic acid F-127 and diluted in assay buffer (Hank's balanced salt solution, 20 mM HEPES, and 2.5 mM probenecid) for 45 minutes at 37° C. Dye was removed, 20 μL of assay buffer was added, and the plate was incubated for 5 minutes at room temperature.
Ca^2+ flux was measured using the Functional Drug Screening System (FDSS7000, Hamamatsu, Japan). After establishment of a fluorescence baseline for about 3 seconds, the compounds of the present invention were added to the cells, and the response in cells was measured. 2.3 minutes later an EC20 concentration of the mGlu2 receptor agonist glutamate was added to the cells, and the response of the cells was measured for 1.9 minutes; an EC80 concentration of agonist was added and readings taken for an additional 1.7 minutes. All test compounds were dissolved and diluted to a concentration of 10 mM in 100% DMSO. Compounds were then serially diluted 1:3 in DMSO into 10 point concentration response curves, transferred to daughter plates, and further diluted into assay buffer to a 2× stock. Calcium fluorescence measures were recorded as fold over basal fluorescence; raw data was then normalized to the maximal response to glutamate. Antagonism of the agonist response of the mGlu2 receptor in the present invention was observed as a decrease in response to nearly maximal concentrations of glutamate in the presence of compound compared to the response to glutamate in the absence of compound.
The raw data file containing all time points was used as the data source in the analysis template. This was saved by the FDSS as a tab-delimited text file. Data were normalized using a static ratio function (F/F0) for each measurement of the total 360 values per well divided by each well's initial value. Data were then reduced to peak amplitudes (Max−Initial Min) using a time range that starts approximately 3 seconds prior to the glutamate EC80 addition and continues for approximately 90 seconds. This is sufficient time to capture the peak amplitude of the cellular calcium response. Individual amplitudes were expressed as % ECMax by multiplying each amplitude by 100 and then dividing the product by the mean of the amplitudes derived from the glutamate ECMax-treated wells. IC50 values for test compounds were generated by fitting the normalized values versus the log of the test compound concentration (in mol/L) using a 4 parameter logistic equation where none of the parameters were fixed. Each of the three values collected at each concentration of test compound were weighted evenly.
For NAMs, potency (IC50) and maximum response (% Glu Max), i.e. the amplitude of response in the presence of 30 μM test compound as a percentage of the maximal response to glutamate, are reported. […] Compounds with no measurable activity are designated as “>30,000 nM” since the top concentration of compound tested in the assay is 30 μM.

T1 sequence (P31421 19-872): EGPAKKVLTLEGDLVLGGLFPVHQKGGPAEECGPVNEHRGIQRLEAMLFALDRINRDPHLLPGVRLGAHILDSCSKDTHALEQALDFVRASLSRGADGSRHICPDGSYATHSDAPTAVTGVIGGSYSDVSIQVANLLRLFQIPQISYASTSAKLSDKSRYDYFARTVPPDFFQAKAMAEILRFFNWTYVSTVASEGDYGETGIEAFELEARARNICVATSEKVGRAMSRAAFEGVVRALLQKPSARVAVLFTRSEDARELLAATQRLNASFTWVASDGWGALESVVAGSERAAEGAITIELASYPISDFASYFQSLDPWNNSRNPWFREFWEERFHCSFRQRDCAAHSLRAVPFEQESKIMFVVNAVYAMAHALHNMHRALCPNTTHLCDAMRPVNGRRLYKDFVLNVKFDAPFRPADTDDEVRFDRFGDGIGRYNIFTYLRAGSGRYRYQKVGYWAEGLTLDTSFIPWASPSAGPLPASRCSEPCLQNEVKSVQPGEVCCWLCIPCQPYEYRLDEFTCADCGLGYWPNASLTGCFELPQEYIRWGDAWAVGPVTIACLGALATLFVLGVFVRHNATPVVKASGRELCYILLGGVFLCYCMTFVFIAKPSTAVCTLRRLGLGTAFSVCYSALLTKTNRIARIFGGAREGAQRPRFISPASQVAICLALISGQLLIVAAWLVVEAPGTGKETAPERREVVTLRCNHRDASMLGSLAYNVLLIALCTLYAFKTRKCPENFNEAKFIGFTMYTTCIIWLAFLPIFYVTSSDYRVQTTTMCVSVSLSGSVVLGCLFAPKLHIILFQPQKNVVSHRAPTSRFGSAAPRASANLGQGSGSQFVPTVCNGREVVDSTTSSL

Structure (SMILES) | IC50 [nM] | remaining activity at 30 µM [%]
Cc1ncc(CCc2ccc3c(c2)c(=O)c(C(N)=O)cn3-c2ccc(F)cc2)cn1 [Compound 1, 1-(4-Fluorophenyl)-6-(2-(2-methylpyrimidin-5-yl)ethyl)-4-oxo-1,4-dihydroquinoline-3-carboxamide] | 227 ± 55 | 1.52 ± 0.26
NC(=O)c1cn(-c2ccc(F)cc2)c2ccc(CN3CCSCC3)cc2c1=O [Compound 2, 1-(4-fluorophenyl)-4-oxo-6-(thiomorpholinomethyl)-1,4-dihydroquinoline-3-carboxamide] | 440 ± 97 | 1.52 ± 0.63
NC(=O)c1cn(-c2ccc(F)cc2)c2ccc(CN3CCOCC3)cc2c1=O [Compound 3, 1-(4-fluorophenyl)-6-(morpholinomethyl)-4-oxo-1,4-dihydroquinoline-3-carboxamide] | 3910 | -0.78
NC(=O)c1cn(-c2ccc(F)cc2)c2ccc(CN3CCCCC3)cc2c1=O [Compound 4, 1-(4-fluorophenyl)-4-oxo-6-(piperidin-1-ylmethyl)-1,4-dihydroquinoline-3-carboxamide] | > 10000 | 53.8
NC(=O)c1cn(-c2ccc(F)cc2)c2ccc(CCc3ccccc3)cc2c1=O [Compound 5, 1-(4-fluorophenyl)-4-oxo-6-phenethyl-1,4-dihydroquinoline-3-carboxamide] | ≥ 10000 | 4.65
Cc1ccc(CCc2ccc3c(c2)c(=O)c(C(N)=O)cn3-c2ccc(F)cc2)cc1 [Compound 6, 1-(4-fluorophenyl)-6-(4-methylphenethyl)-4-oxo-1,4-dihydroquinoline-3-carboxamide] | > 10000 | 68.5
Cc1cccc(CCc2ccc3c(c2)c(=O)c(C(N)=O)cn3-c2ccc(F)cc2)c1 [Compound 7, 1-(4-fluorophenyl)-6-(3-methylphenethyl)-4-oxo-1,4-dihydroquinoline-3-carboxamide] | > 10000 | 42.1
Cc1ccccc1CCc1ccc2c(c1)c(=O)c(C(N)=O)cn2-c1ccc(F)cc1 [Compound 8, 1-(4-fluorophenyl)-6-(2-methylphenethyl)-4-oxo-1,4-dihydroquinoline-3-carboxamide] | > 10000 | 18.7
NC(=O)c1cn(-c2ccc(F)cc2)c2ccc(CCc3ccncc3)cc2c1=O [Compound 9, 1-(4-fluorophenyl)-4-oxo-6-(2-(pyridin-4-yl)ethyl)-1,4-dihydroquinoline-3-carboxamide] | 492 ± 97 | 1.88 ± 0.38
NC(=O)c1cn(-c2ccc(F)cc2)c2ccc(CCc3cccnc3)cc2c1=O [Compound 10, 1-(4-fluorophenyl)-4-oxo-6-(2-(pyridin-3-yl)ethyl)-1,4-dihydroquinoline-3-carboxamide] | 482 ± 87 | 1.9 ± 0.11
NC(=O)c1cn(-c2ccc(F)cc2)c2ccc(CCc3ccccn3)cc2c1=O [Compound 11, 1-(4-fluorophenyl)-4-oxo-6-(2-(pyridin-2-yl)ethyl)-1,4-dihydroquinoline-3-carboxamide] | 2590 | 0.92
CN(Cc1cccnc1)c1ccc2c(c1)c(=O)c(C(N)=O)cn2-c1ccc(F)cc1 [Compound 12, 1-(4-fluorophenyl)-6-(methyl(pyridin-3-ylmethyl)amino)-4-oxo-1,4-dihydroquinoline-3-carboxamide] | 202 ± 14 | 2.39 ± 0.13

Continued, values first:

IC50 [nM] | remaining activity at 30 µM [%] | Structure (SMILES)
311 | 1.14 | COc1ccc(-n2cc(C(N)=O)c(=O)c3cc(CCc4cnc(C)nc4)ccc32)c(F)c1 [Compound 13, 1-(2-fluoro-4-methoxyphenyl)-6-(2-(2-methylpyrimidin-5-yl)ethyl)-4-oxo-1,4-dihydroquinoline-3-carboxamide]
252 | 1.15 | COc1ccc(-n2cc(C(N)=O)c(=O)c3cc(CCc4cnc(C)nc4)ccc32)cc1F [Compound 14, 1-(3-fluoro-4-methoxyphenyl)-6-(2-(2-methylpyrimidin-5-yl)ethyl)-4-oxo-1,4-dihydroquinoline-3-carboxamide]
139 | 1.61 | COc1ccc(-n2cc(C(N)=O)c(=O)c3cc(CCc4cnc(C)nc4)ccc32)cc1 [Compound 15, 1-(4-methoxyphenyl)-6-(2-(2-methylpyrimidin-5-yl)ethyl)-4-oxo-1,4-dihydroquinoline-3-carboxamide]
433 | 1.77 | NC(=O)c1cn(-c2ccc(F)cc2)c2ccc(Nc3cccnc3)cc2c1=O [Compound 16, 1-(4-fluorophenyl)-4-oxo-6-(pyridin-3-ylamino)-1,4-dihydroquinoline-3-carboxamide]
421 | 1.05 | NC(=O)c1cn(-c2ccc(F)cc2)c2ccc(NCc3cccnc3)cc2c1=O [Compound 17, 1-(4-fluorophenyl)-4-oxo-6-((pyridin-3-ylmethyl)amino)-1,4-dihydroquinoline-3-carboxamide]
1150 | 1.73 | CN(c1ccncc1)c1ccc2c(c1)c(=O)c(C(N)=O)cn2-c1ccc(F)cc1 [Compound 18, 1-(4-fluorophenyl)-6-(methyl(pyridin-4-yl)amino)-4-oxo-1,4-dihydroquinoline-3-carboxamide]
224 | 1.02 | CN(Cc1ccncc1)c1ccc2c(c1)c(=O)c(C(N)=O)cn2-c1ccc(F)cc1 [Compound 19, 1-(4-fluorophenyl)-6-(methyl(pyridin-4-ylmethyl)amino)-4-oxo-1,4-dihydroquinoline-3-carboxamide]
155 | 1.33 | CN(c1cccnc1)c1ccc2c(c1)c(=O)c(C(N)=O)cn2-c1ccc(F)cc1 [Compound 20, 1-(4-fluorophenyl)-6-(methyl(pyridin-3-yl)amino)-4-oxo-1,4-dihydroquinoline-3-carboxamide]
541 ± 116 | 1.55 ± 0.39 | Cc1ccc(COc2ccc3c(c2)c(=O)c(C(N)=O)cn3-c2ccc(F)cc2)cn1 [Compound 21, 1-(4-fluorophenyl)-6-((6-methylpyridin-3-yl)methoxy)-4-oxo-1,4-dihydroquinoline-3-carboxamide]
419 ± 46 | 1.2 ± 0.5 | Cc1cc(-n2cc(C(N)=O)c(=O)c3cc(CCc4cnc(C)nc4)ccc32)sn1 [Compound 22, 1-(3-methylisothiazol-5-yl)-6-(2-(2-methylpyrimidin-5-yl)ethyl)-4-oxo-1,4-dihydroquinoline-3-carboxamide]
460 ± 62 | 1.07 ± 0.13 | CC(Oc1ccc2c(c1)c(=O)c(C(N)=O)cn2-c1ccc(F)cc1)c1ccncc1 (stereo not drawn) [Compound 23, 1-(4-fluorophenyl)-4-oxo-6-(1-(pyridin-4-yl)ethoxy)-1,4-dihydroquinoline-3-carboxamide]
422 ± 94 | 1.09 ± 0.16 | Cc1cc(COc2ccc3c(c2)c(=O)c(C(N)=O)cn3-c2ccc(F)cc2)ccn1 [Compound 24, 1-(4-fluorophenyl)-6-((2-methylpyridin-4-yl)methoxy)-4-oxo-1,4-dihydroquinoline-3-carboxamide]
1230 | 0.97 | NC(=O)c1cn(-c2ccc(F)cc2)c2ccc(OCc3ccncc3)cc2c1=O [Compound 25, 1-(4-fluorophenyl)-4-oxo-6-(pyridin-4-ylmethoxy)-1,4-dihydroquinoline-3-carboxamide]
444 | 1.91 | NC(=O)c1cn(-c2ccc(F)cc2)c2ccc(NCCc3ccncc3)cc2c1=O [Compound 26, 1-(4-fluorophenyl)-4-oxo-6-((2-(pyridin-4-yl)ethyl)amino)-1,4-dihydroquinoline-3-carboxamide]
391 | 1.75 | NC(=O)c1cn(-c2ccc(F)cc2)c2ccc(NCCc3cccnc3)cc2c1=O [Compound 27, 1-(4-fluorophenyl)-4-oxo-6-((2-(pyridin-3-yl)ethyl)amino)-1,4-dihydroquinoline-3-carboxamide]
